Laboratory results taken from US11629175B2, “Method for preparing PHFS-like Tau aggregates” (ECOLE POLYTECHNIQUE FEDERALE DE LAUSANNE (EPFL), priority 2018, dated 2023).
One block for each molecule: values may come before it.

What was measured:
[1] = test system: tau biosensor cells; assay: Tau biosensor cell assay (FRET flow cytometry, confocal microscopy), seeding capacity; assay type: cell-based; conditions: for Integrated FRET Density (IFD): FRET flow cytometry, 2 experimental repeats, 3 technical replicates
Source text: Based on Furman and Diamond, 2017. FRET and Flow Cytometry Assays to Measure Proteopathic Seeding Activity in Biological Samples. Caroline Smet-Nocca (ed.), Tau Protein: Methods and Protocols, Methods in Molecular Biology, vol. 1523, DOI 10.1007/978-1-4939-6598-4_23, © Springer Science+Business Media New York 2017).
Methods: FRET flow cytometry Biosensor cell assay (Furman and Diamond, 2017) was used to assess the seeding capacity of fibrillar R2 compared to R2 monomer, and fibrillar rPHF compared to 4R2N monomer
Methods: cells were transduced with transduction buffer, R2 monomer, rPHFs or R2 fibrils following protocol by Furman and Diamond (2017).

[2] = molecular target: T1, monomeric Tau 4R2N (Homo sapiens, UniProt P10636); assay: R2-seeded Tau aggregation with commercially available inhibitors, ThS fluorescence and EM; assay type: biochemical; conditions: Tau 4R2N 5 μM + R2 seeds 5 μM; inhibitor 1, 10, 100 μM; end timepoint ThS
T1 construct: made in house; host or cells: E. coli (pET-28a(+))
T1 sequence (P10636 1-441 isoform P10636-8): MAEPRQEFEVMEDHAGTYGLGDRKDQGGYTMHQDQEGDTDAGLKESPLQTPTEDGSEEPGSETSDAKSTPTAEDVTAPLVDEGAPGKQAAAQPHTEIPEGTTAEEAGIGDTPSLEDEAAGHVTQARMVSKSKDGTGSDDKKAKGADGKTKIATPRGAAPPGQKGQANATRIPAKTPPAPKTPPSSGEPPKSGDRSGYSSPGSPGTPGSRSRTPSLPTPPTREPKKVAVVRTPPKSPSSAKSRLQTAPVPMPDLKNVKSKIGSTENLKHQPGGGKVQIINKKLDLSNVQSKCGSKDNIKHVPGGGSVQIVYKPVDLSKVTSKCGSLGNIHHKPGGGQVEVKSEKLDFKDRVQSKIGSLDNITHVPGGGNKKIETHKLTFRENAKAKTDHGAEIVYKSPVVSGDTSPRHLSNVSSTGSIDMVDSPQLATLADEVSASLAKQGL
Protocol: The aggregation kinetic is followed using ThS fluorescence. a. The list and structure of the 5 inhibitors used in this proof of concept assay. b. As an example, the full kinetic of Tau incubated in presence of R2 seed with LMTX at 1 μM (orange), 10 μM (grey) or 100 μM (yellow) or in absence of inhibitor (blue). c. End timepoint ThS value of Tau incubated in presence of R2 with the five selected inhibitors at 1 μM (orange), 10 μM (grey) or 100 μM (yellow) or in absence of inhibitor (blue). The inhibition is dose-dependent, the inhibitors show various inhibition potencies (e.g. low for BSc3094, high for LMTX). […] Corresponding EM micrographs confirm the absence of significant fibrilization in the presence of most inhibitors. The presence of oligomeric species corroborate the hypothesis that Tau is locked in OFF-pathway conformations. The scale bars are 500 [nm].
To do so, R2 seeds were incubated with monomeric Tau protein in presence or absence of a set commercially available know Tau aggregation inhibitors (ATPZ, LMTX, Pyrochatecol violet, BSc3094 and myricetin, FIG. 18 a) at three different conventions (1 μM, 10 μM and 100 μM). The aggregation kinetic was followed using ThS fluorescence. As an example, the full kinetic of Tau incubated in presence of R2 seed, with LMTX at the three different concentration is presented in FIG. 18 b. […]

[3] = molecular target: T1, monomeric Tau 4R2N; assay: Seeding of monomeric Tau with R2 or R2-derived peptide seeds, EM; assay type: biochemical; conditions: 37° C.; for seeding of monomeric Tau / formation of rPHFs (EM): 10 μM sonicated peptide fibrils + 10 μM monomeric Tau
Protocol: The seeding of Tau 4R2N (SEQ ID No: 5) by R2 was performed in presence of 10 μM of sonicated peptide fibrils, added to 10 μM of the monomeric soluble Tau, at 37° C. under stagnant conditions. It was observed that R2 is capable of seeding the aggregation of full length Tau (FIG. 3).
Having determined which of the R2-derived peptides are capable of aggregation and characterized their aggregation kinetics and fibril morphology, it was next investigated whether some of the R2-derived peptides could induce the seeding of Tau and K18, and whether it would lead to the formation of rPHFs fibrils. In order to reach this goal, fibrils of the peptides that were able to aggregate (R2 dC5, dC9, dC10, dC15 K6N and dPHF6*) were sonicated and added to monomeric Tau or K18 at molar ratios of 10 μM: 10 μM (i.e. under the same experimental conditions as those leading to R2-seeding of Tau and K18).
Unless stated otherwise, 100 μM R2 or R2-derived peptide were dissolved in 10 mM phosphate, 50 mM NaF, 0.5 mM DTT and pH-adjusted to 7.4. The solution was then vortexed and the supernatant was incubated in presence of heparin sodium salt at molar ratio 1:4 (heparin:peptide) (Applichem GmbH) at 37° C., either with or without constant orbital agitation (1000 rpm, Peqlab, Thriller).
The obtained seeds were added at a final concentration of 10 μM to 10 μM of monomeric Tau or K18 in 10 mM phosphate, 50 mM NaF, 0.5 mM DTT and incubated 37° C.

[4] = test system: hippocampal rat primary neurons; assay: Immunocytochemistry (ThS) in transfected rat primary hippocampal neurons; assay type: cell-based; conditions: 1 μM, 3 days
Protocol: Next, the findings of the present invention were validated using a cellular model, the hippocampal rat primary neurons. Primary neurons were transfected with full length Tau and K18 ΔK280, and cells were treated with R2, R2-seeded Tau or R2-seeded K18 at a concentration of 1 μM, […]. After 3 days, the coverslips were processed for ICC. […] Although the intracellular ThS signal is relatively high, it is difficult to distinguish between uptake of exogenous material and seeding of endogenous and/or overexpressed Tau/K18 ΔK280, especially since the concentration used here is relatively high (1 μM).
Hippocampi from PO WT rat (OFA SD, Charles River) were dissociated and triturated in papain-containing medium. After centrifugation at 400 g for 2 min, neurons were plated in MEM supplemented with 10% fetal calf serum (FCS) on Cultrex™ poly-L-lysine (Trevigen)-coated coverslips at 1.5×10^5 cells/ml (6 well-plates, 3 ml per well). After 4 h, medium was replaced with Neurobasal/B27 medium. Viral infections were performed two weeks, and transfection one week after plating.
One week old hippocampal rat primary neurons seeded on coverslips coated with Cultrex poly-L-lysine were transfected with Tau or K18 ΔK280 ([…]) using lipofectamine 2000 reagent (Invitrogen). 24 h after transfection, cells were treated with 1 μM monomeric R2, R2 seeds, R2-seeded Tau, R2-seeded K18 and further incubated for 1 or 3 days. Cells were then fixed in 100% methanol at −20° C. for 10 min and rinsed three times in PBS. After blocking with 3% BSA in PBST for 30 min at RT, cells were incubated with ThS (Sigma) at 0.1 mg/ml in PBS for 10 min and rinsed 5 times with 80% Ethanol and once with PBS. Coverslips were then incubated with primary antibodies for 2 h at RT (see Table M.1). The cells were rinsed five times with PBST and subsequently incubated with the secondary antibodies at a dilution of 1/800 in PBST and DAPI at 2 μg/ml (Life technologies). The cells were washed five times in PBST, once in PBS and rinsed in MilliQ water before mounting in PVA medium with DABCO (Sigma). The cells were then examined with confocal laser-scanning microscope (LSM 700, Zeiss) and analyzed using Zen software.

[5] = neurons transfected with K18 ΔK280
[6] = neurons transfected with WT Tau 4R2N

Molecule: 4R2N monomer: longest adult human Tau isoform, 441 amino acid, SEQ ID No 5, monomeric
Integrated FRET Density (IFD) [1]: 0

inhibition potency [2]: low
Molecule: O=C(NNc1nc(-c2ccc([N+](=O)[O-])cc2)cs1)c1ccc2nc[nH]c2c1 [BSc3094]

Molecule: CN(C)c1ccc2c(c1)Sc1cc(N(C)C)ccc1N2.CS(=O)(=O)O.CS(=O)(=O)O [LMTX]
inhibition potency [2]: high

seeding of monomeric Tau / formation of rPHFs (EM) [3]: allowed the formation of rPHFs
Molecule: R2 extended and mutated to the SGGG motif: R2 PGGG-extended with P301S mutation (SGGG), SEQ ID No 4 (VQIINKKLDLSNVQSKCGSKDNIKHVSGGG; listed as Homo sapiens)

Molecule: R2-seeded K18: K18 (SEQ ID No 6) fibrils formed by seeding with R2 seeds
ThS signal in transfected neurons [4, 5]: strong ThS signal
localisation of ThS signal [4, 5]: intracellular
ThS signal in transfected neurons [4, 6]: strong ThS signal
localisation of ThS signal [4, 6]: intracellular

incubation time until PHFs-like fibrils observed by EM ([3]; 10 μM R2 seeds + 10 μM Tau 4R2N, stagnant): less than 4 h
seeding of monomeric Tau / formation of rPHFs (EM) [3]: allowed the formation of rPHFs
Molecule: R2: Tau repeat peptide R2, SEQ ID No 1

Molecule: rPHF fibrils: recombinant PHFs: Tau fibrils formed by seeding monomeric Tau with R2 seeds
Integrated FRET Density (IFD) [1]: increase in the IFD
aggregates in transduced biosensor cells (confocal microscopy) ([1]; transduction per Furman and Diamond): bright aggregated puncta
ThS signal in transfected neurons [4, 5]: strong ThS signal
localisation of ThS signal [4, 5]: intracellular
ThS signal in transfected neurons [4, 6]: strong ThS signal
localisation of ThS signal [4, 6]: intracellular
